Assays:
Hepatitis B virus [1] = test: Antiviral activity against HBV assessed as inhibition of viral early antigen secretion; assay type: functional, organism-based
Hepatitis B virus [2] = test: Antiviral activity against HBV assessed as inhibition of viral surface antigen secretion; assay type: functional, organism-based
[3] = Cytotoxicity against human HepG2(2.2.15) cells; assay type: cell-based
[4] = Selectivity index, ratio of CC50 for human HepG2(2.2.15) cells to IC50 for HBV surface antigen secretion; assay type: functional
[5] = Selectivity index, ratio of CC50 for human HepG2(2.2.15) cells to IC50 for HBV early antigen secretion; assay type: functional

Row | Structure (SMILES) | IC50 (Hepatitis B virus [1]) [µM] | IC50 (Hepatitis B virus [2]) [µM] | CC50 [3] [µM] | Ratio CC50/IC50 [4] | Ratio CC50/IC50 [5]
1 | CC(C)CC(=O)O[C@@H](C[C@@H](C)C1=C2C[C@H](OC(=O)CC(C)C)[C@H]3[C@@]4(C)CCC(=O)C(C)(C)[C@@H]4CC[C@]3(C)[C@@]2(C)CC1)[C@@H](OC(=O)CC(C)C)C(C)(C)O | > 1200 | > 1200 | > 1200 | – | –
2 | C[C@H](C[C@H](OC(=O)c1ccc(Cl)cc1Cl)[C@@H](OC(=O)c1ccc(Cl)cc1Cl)C(C)(C)O)C1=C2C[C@H](OC(=O)c3ccc(Cl)cc3Cl)[C@H]3[C@@]4(C)CCC(=O)C(C)(C)[C@@H]4CC[C@]3(C)[C@@]2(C)CC1 | > 1200 | > 1200 | > 1200 | – | –
3 | C[C@H](C[C@H](OC(=O)/C=C/c1ccccc1Cl)[C@@H](OC(=O)/C=C/c1ccccc1Cl)C(C)(C)O)C1=C2C[C@H](OC(=O)/C=C/c3ccccc3Cl)[C@H]3[C@@]4(C)CCC(=O)C(C)(C)[C@@H]4CC[C@]3(C)[C@@]2(C)CC1 | > 1300 | 950 | > 1300 | >1.3 | –
4 | C=C(C)[C@H](OC(=O)COC(C)=O)[C@H](C[C@@H](C)[C@]12CC[C@@]3(C)[C@@]1(C[C@H](OC(=O)COC(C)=O)[C@H]1[C@@]4(C)CCC(=O)C(C)(C)[C@@H]4CC[C@@]13C)O2)OC(=O)COC(C)=O | > 1600 | 51 | > 1600 | >31 | –
5 | COCC(=O)O[C@@H](C[C@@H](C)[C@]12CC[C@@]3(C)[C@@]1(C[C@H](OC(=O)COC)[C@H]1[C@@]4(C)CCC(=O)C(C)(C)[C@@H]4CC[C@@]13C)O2)[C@@H](OC(=O)COC)C(C)(C)OC(=O)COC | > 1600 | 110 | > 800 | >7.3 | –
6 | C[C@H](C[C@H](OC(=O)Cc1ccc([N+](=O)[O-])cc1)[C@@H](OC(=O)Cc1ccc([N+](=O)[O-])cc1)C(C)(C)O)C1=C2C[C@H](OC(=O)Cc3ccc([N+](=O)[O-])cc3)[C@H]3[C@@]4(C)CCC(=O)C(C)(C)[C@@H]4CC[C@]3(C)[C@@]2(C)CC1 | > 1000 | > 1000 | > 1000 | – | –
7 | C[C@H](C[C@H](OC(=O)COc1ccccc1)[C@@H](OC(=O)COc1ccccc1)C(C)(C)O)C1=C2C[C@H](OC(=O)COc3ccccc3)[C@H]3[C@@]4(C)CCC(=O)C(C)(C)[C@@H]4CC[C@]3(C)[C@@]2(C)CC1 | > 1300 | > 1300 | > 1300 | – | –
8 | C=C(C)[C@H](OC(=O)COC)[C@H](C[C@@H](C)[C@]12CC[C@@]3(C)[C@@]1(C[C@H](OC(=O)COC)[C@H]1[C@@]4(C)CCC(=O)C(C)(C)[C@@H]4CC[C@@]13C)O2)OC(=O)COC | > 1300 | 44 | > 1300 | >29 | –
9 | C=C(C)[C@H](OC(=O)COCC)[C@H](C[C@@H](C)[C@]12CC[C@@]3(C)[C@@]1(C[C@H](OC(=O)COCC)[C@H]1[C@@]4(C)CCC(=O)C(C)(C)[C@@H]4CC[C@@]13C)O2)OC(=O)COCC | > 1800 | 20 | > 1800 | >90 | –
10 | C=C(C)[C@H](OC(=O)CC(C)C)[C@H](C[C@@H](C)C1=C2C[C@H](OC(=O)CC(C)C)[C@H]3[C@@]4(C)CCC(=O)C(C)(C)[C@@H]4CC[C@]3(C)[C@@]2(C)CC1)OC(=O)CC(C)C | > 1200 | > 1200 | > 1200 | – | –
11 | CCCCC(=O)O[C@@H](C[C@@H](C)C1=C2C[C@H](OC(=O)CCCC)[C@H]3[C@@]4(C)CCC(=O)C(C)(C)[C@@H]4CC[C@]3(C)[C@@]2(C)CC1)[C@@H](OC(=O)CCCC)C(C)(C)O | > 1300 | > 1300 | > 1300 | – | –
12 | C=C(C)[C@H](OC(=O)CCCC)[C@H](C[C@@H](C)C1=C2C[C@H](OC(=O)CCCC)[C@H]3[C@@]4(C)CCC(=O)C(C)(C)[C@@H]4CC[C@]3(C)[C@@]2(C)CC1)OC(=O)CCCC | > 920 | > 920 | > 920 | – | –
13 | C[C@H](C[C@H](OC(=O)CC(C)(C)C)[C@@H](OC(=O)CC(C)(C)C)C(C)(C)O)C1=C2C[C@H](OC(=O)CC(C)(C)C)[C@H]3[C@@]4(C)CCC(=O)C(C)(C)[C@@H]4CC[C@]3(C)[C@@]2(C)CC1 | > 1200 | > 1200 | > 1200 | – | –
14 | C[C@H](C[C@H](OC(=O)c1ccccc1I)[C@@H](OC(=O)c1ccccc1I)C(C)(C)O)C1=C2C[C@H](OC(=O)c3ccccc3I)[C@H]3[C@@]4(C)CCC(=O)C(C)(C)[C@@H]4CC[C@]3(C)[C@@]2(C)CC1 | > 1500 | > 1500 | > 1500 | – | –
15 | CCC(CC)C(=O)O[C@@H](C[C@@H](C)C1=C2C[C@H](OC(=O)C(CC)CC)[C@H]3[C@@]4(C)CCC(=O)C(C)(C)[C@@H]4CC[C@]3(C)[C@@]2(C)CC1)[C@@H](OC(=O)C(CC)CC)C(C)(C)O | > 1100 | > 1100 | > 1100 | – | –
16 | C[C@H](C[C@H](OC(=O)C1CC1)[C@@H](OC(=O)C1CC1)C(C)(C)O)C1=C2C[C@H](OC(=O)C3CC3)[C@H]3[C@@]4(C)CCC(=O)C(C)(C)[C@@H]4CC[C@]3(C)[C@@]2(C)CC1 | > 1000 | > 1000 | > 1000 | – | –
17 | C[C@H](C[C@H](OC(=O)C1CCCC1)[C@@H](OC(=O)C1CCCC1)C(C)(C)O)C1=C2C[C@H](OC(=O)C3CCCC3)[C@H]3[C@@]4(C)CCC(=O)C(C)(C)[C@@H]4CC[C@]3(C)[C@@]2(C)CC1 | > 1100 | > 1100 | > 1100 | – | –
18 | C[C@H](C[C@H](OC(=O)CCOc1ccccc1)[C@@H](OC(=O)CCOc1ccccc1)C(C)(C)O)C1=C2C[C@H](OC(=O)CCOc3ccccc3)[C@H]3[C@@]4(C)CCC(=O)C(C)(C)[C@@H]4CC[C@]3(C)[C@@]2(C)CC1 | > 950 | > 950 | > 950 | – | –

Further lines, with some results ahead:

Row | IC50 (Hepatitis B virus [1]) [µM] | IC50 (Hepatitis B virus [2]) [µM] | Structure (SMILES) | CC50 [3] [µM] | Ratio CC50/IC50 [4] | Ratio CC50/IC50 [5]
19 | > 850 | > 850 | C/C=C/C(=O)O[C@@H](C[C@@H](C)C1=C2C[C@H](OC(=O)/C=C/C)[C@H]3[C@@]4(C)CCC(=O)C(C)(C)[C@@H]4CC[C@]3(C)[C@@]2(C)CC1)[C@@H](OC(=O)/C=C/C)C(C)(C)O | > 850 | – | –
20 | > 900 | > 900 | C/C=C/C=C/C(=O)O[C@@H](C[C@@H](C)C1=C2C[C@H](OC(=O)/C=C/C=C/C)[C@H]3[C@@]4(C)CCC(=O)C(C)(C)[C@@H]4CC[C@]3(C)[C@@]2(C)CC1)[C@@H](OC(=O)/C=C/C=C/C)C(C)(C)O | > 900 | – | –
21 | 260 | 200 | CCOCC(=O)O[C@@H](C[C@@H](C)C1=C2C[C@H](OC(=O)COCC)[C@H]3[C@@]4(C)CCC(=O)C(C)(C)[C@@H]4CC[C@]3(C)[C@@]2(C)CC1)[C@@H](OC(=O)COCC)C(C)(C)OC(=O)COCC | > 2300 | >11 | >8.7
22 | 27 | 28 | COCC(=O)O[C@@H](C[C@@H](C)C1=C2C[C@H](OC(=O)COC)[C@H]3[C@@]4(C)CCC(=O)C(C)(C)[C@@H]4CC[C@]3(C)[C@@]2(C)CC1)[C@@H](OC(=O)COC)C(C)(C)OC(=O)COC | > 2500 | >90 | >93
23 | < 32 | < 32 | C=C(C)[C@H](OC(=O)COC(C)=O)[C@H](C[C@@H](C)C1=C2C[C@H](OC(=O)COC(C)=O)[C@H]3[C@@]4(C)CCC(=O)C(C)(C)[C@@H]4CC[C@]3(C)[C@@]2(C)CC1)OC(=O)COC(C)=O | < 30 | – | –
24 | > 600 | > 600 | CCCCCCCC(=O)O[C@@H](C[C@@H](C)C1=C2C[C@H](OC(=O)CCCCCCC)[C@H]3[C@@]4(C)CCC(=O)C(C)(C)[C@@H]4CC[C@]3(C)[C@@]2(C)CC1)[C@@H](OC(=O)CCCCCCC)C(C)(C)O | > 600 | – | –
25 | > 900 | > 900 | C[C@H](C[C@H](OC(=O)c1ccc(Cl)cc1)[C@@H](OC(=O)c1ccc(Cl)cc1)C(C)(C)O)C1=C2C[C@H](OC(=O)c3ccc(Cl)cc3)[C@H]3[C@@]4(C)CCC(=O)C(C)(C)[C@@H]4CC[C@]3(C)[C@@]2(C)CC1 | > 900 | – | –
26 | > 400 | 140 | COCC(=O)O[C@@H](C[C@@H](C)C1=C2C[C@H](OC(=O)COC)[C@H]3[C@@]4(C)CCC(=O)C(C)(C)[C@@H]4CC[C@]3(C)[C@@]2(C)CC1)[C@@H](OC(=O)COC)C(C)(C)O | 400 | 2.9 | –
27 | > 900 | > 900 | CC(C)CCC(=O)O[C@@H](C[C@@H](C)C1=C2C[C@H](OC(=O)CCC(C)C)[C@H]3[C@@]4(C)CCC(=O)C(C)(C)[C@@H]4CC[C@]3(C)[C@@]2(C)CC1)[C@@H](OC(=O)CCC(C)C)C(C)(C)O | > 900 | – | –
28 | 2000 | 400 | CCOCC(=O)O[C@@H](C[C@@H](C)C1=C2C[C@H](OC(=O)COCC)[C@H]3[C@@]4(C)CCC(=O)C(C)(C)[C@@H]4CC[C@]3(C)[C@@]2(C)CC1)[C@@H](OC(=O)COCC)C(C)(C)O | > 2600 | >6.5 | >1.3
29 | > 800 | > 800 | C[C@H](C[C@H](OC(=O)C1CCCCC1)[C@@H](OC(=O)C1CCCCC1)C(C)(C)O)C1=C2C[C@H](OC(=O)C3CCCCC3)[C@H]3[C@@]4(C)CCC(=O)C(C)(C)[C@@H]4CC[C@]3(C)[C@@]2(C)CC1 | > 800 | – | –
30 | > 810 | > 810 | C[C@H](C[C@H](OC(=O)CCC1CCCCC1)[C@@H](OC(=O)CCC1CCCCC1)C(C)(C)O)C1=C2C[C@H](OC(=O)CCC3CCCCC3)[C@H]3[C@@]4(C)CCC(=O)C(C)(C)[C@@H]4CC[C@]3(C)[C@@]2(C)CC1 | > 810 | – | –
31 | > 650 | > 650 | C[C@H](C[C@H](OC(=O)c1ccc(Br)cc1)[C@@H](OC(=O)c1ccc(Br)cc1)C(C)(C)O)C1=C2C[C@H](OC(=O)c3ccc(Br)cc3)[C@H]3[C@@]4(C)CCC(=O)C(C)(C)[C@@H]4CC[C@]3(C)[C@@]2(C)CC1 | 650 | <1 | <1
